Patent US20240208992A1, “MACROCYCLES AS CFTR MODULATORS” (Idorsia Pharmaceuticals Ltd, priority 2021, published 2024)
Values belong to the compound of their own block, whether it stands above or below them.

Molecular target: human F508del-CFTR (Homo sapiens, UniProt P13569, DEL508-508)
Assay: F508del-CFTR cell surface expression (corrector activity), DiscoveRx ß-galactosidase complementation chemiluminescence assay in recombinant U2OS cell line;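 further: U2OS cells co-expressing ProLink-tagged F508del-CFTR and a membrane-anchored enzyme acceptor, where more surface CFTR restores β-galactosidase activity measured by chemiluminescence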
Settings: for EC50: EC50, F508del-CFTR cell surface expression; for Emax: U2OS
[1] = U2OS cells, 16h compound incubation, geomean of several measurements
[2] = in relation to the Emax of the corrector lumacaftor (=100%), U2OS cells, 16h compound incubation, arithmetic mean
[3] = U2OS cells, 16h compound incubation, geomean values
[4] = in relation to Emax of corrector lumacaftor (=100%), arithmetic mean values
[5] = U2OS cell line, 16h compound incubation, geomean values
[6] = in relation to the Emax of the corrector lumacaftor (=100%), U2OS cell line, 16h compound incubation, arithmetic mean values

Sequence of human F508del-CFTR (P13569 with tags, fused parts or gaps DEL508-508): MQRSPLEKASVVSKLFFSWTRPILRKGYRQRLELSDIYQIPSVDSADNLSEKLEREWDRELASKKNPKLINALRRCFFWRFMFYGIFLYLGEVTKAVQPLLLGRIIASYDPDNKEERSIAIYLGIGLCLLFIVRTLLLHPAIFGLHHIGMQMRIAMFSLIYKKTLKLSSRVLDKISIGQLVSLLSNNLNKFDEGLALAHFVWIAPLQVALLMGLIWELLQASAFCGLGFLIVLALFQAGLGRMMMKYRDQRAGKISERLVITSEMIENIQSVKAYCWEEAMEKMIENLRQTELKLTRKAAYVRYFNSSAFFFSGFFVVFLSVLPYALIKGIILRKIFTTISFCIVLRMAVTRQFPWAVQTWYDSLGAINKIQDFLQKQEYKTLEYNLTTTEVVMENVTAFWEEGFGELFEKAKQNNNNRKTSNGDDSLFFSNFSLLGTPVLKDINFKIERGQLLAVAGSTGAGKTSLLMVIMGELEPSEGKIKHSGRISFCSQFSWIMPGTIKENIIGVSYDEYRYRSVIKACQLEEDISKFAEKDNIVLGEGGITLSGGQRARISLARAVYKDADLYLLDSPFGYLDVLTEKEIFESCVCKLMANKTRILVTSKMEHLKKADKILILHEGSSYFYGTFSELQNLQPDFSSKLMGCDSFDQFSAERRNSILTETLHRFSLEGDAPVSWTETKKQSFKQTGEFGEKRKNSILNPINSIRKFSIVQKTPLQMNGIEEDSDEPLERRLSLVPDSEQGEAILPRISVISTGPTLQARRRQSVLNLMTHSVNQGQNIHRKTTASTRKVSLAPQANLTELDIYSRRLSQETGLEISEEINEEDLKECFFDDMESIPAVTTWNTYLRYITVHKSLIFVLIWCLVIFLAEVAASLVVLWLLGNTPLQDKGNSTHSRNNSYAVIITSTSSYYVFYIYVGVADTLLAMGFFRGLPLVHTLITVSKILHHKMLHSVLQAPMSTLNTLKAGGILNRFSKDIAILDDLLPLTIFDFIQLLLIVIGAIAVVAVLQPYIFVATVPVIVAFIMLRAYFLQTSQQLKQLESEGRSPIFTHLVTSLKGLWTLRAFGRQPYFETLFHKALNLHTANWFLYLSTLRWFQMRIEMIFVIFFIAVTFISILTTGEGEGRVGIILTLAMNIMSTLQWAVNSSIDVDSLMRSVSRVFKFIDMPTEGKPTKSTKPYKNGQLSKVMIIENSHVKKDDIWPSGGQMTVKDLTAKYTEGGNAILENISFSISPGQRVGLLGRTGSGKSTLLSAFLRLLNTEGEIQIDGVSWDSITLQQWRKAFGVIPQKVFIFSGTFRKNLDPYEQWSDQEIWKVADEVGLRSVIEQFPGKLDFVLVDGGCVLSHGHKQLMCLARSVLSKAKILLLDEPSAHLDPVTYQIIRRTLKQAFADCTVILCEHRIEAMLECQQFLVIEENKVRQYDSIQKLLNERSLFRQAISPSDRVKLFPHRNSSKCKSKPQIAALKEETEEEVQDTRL

Structure (SMILES): COc1cccc(CCNC(=O)[C@@H]2CC(=O)N(C)[C@@H](CC(C)C)C(=O)N3CCN(C4CC4)C[C@@H]3C(=O)N[C@H](Cc3ccccc3)COc3cnc4ccccc4c3C(=O)N2)c1 [Example 389, (9S,13S,19aR,22R)-22-benzyl-18-cyclopropyl-13-isobutyl-N-(3-methoxyphenethyl)-12-methyl-7,11,14,20-tetraoxo-7,8,9,10,11,12,13,14,17,18,19,19a,20,21,22,23-hexadecahydro-16H-pyrazino[2′,1′:6,7][1]oxa[4,7,10,14]tetraazacycloheptadecino[17,16-c]quinoline-9-carboxamide]
EC50 [5]: 0.115 µM
Emax [6]: 320%

Structure (SMILES): CCOc1cccc(CCNC(=O)[C@@H]2CC(=O)N(C)[C@@H](CC(C)C)C(=O)N(C)CC(=O)N[C@H](Cc3ccccc3)COc3cc(OC)c(OC)cc3C(=O)N2)c1 [Example 194, (3R,9S,13S)-3-benzyl-N-(3-ethoxyphenethyl)-9-isobutyl-17,18-dimethoxy-7,10-dimethyl-5,8,11,15-tetraoxo-2,3,4,5,6,7,8,9,10,11,12,13,14,15-tetradecahydrobenzo[p][1]oxa[4,7,10,14]tetraazacycloheptadecine-13-carboxamide]
EC50 [5]: 0.613 µM
Emax [6]: 178%

Structure (SMILES): COc1nccc2c1C(=O)N[C@H](C(=O)NCC(F)(F)c1nc(C3CC3)no1)CC(=O)N(C)[C@@H](CC(C)C)C(=O)N1CCCC[C@@H]1C(=O)N[C@H](Cc1ccccc1)CO2 [Example 831, (7S,11S,17aR,20R)-20-benzyl-N-(2-(3-cyclopropyl-1,2,4-oxadiazol-5-yl)-2,2-difluoroethyl)-11-isobutyl-4-methoxy-10-methyl-5,9,12,18-tetraoxo-5,6,7,8,9,10,11,12,15,16,17,17a,18,19,20,21-hexadecahydro-14H-dipyrido[2,1-f:3′,4′-p][1]oxa[4,7,10,14]tetraazacycloheptadecine-7-carboxamide]
EC50 [1]: 0.491 µM
Emax [2]: 231%

Structure (SMILES): [2H]C([2H])([2H])Oc1cccc(CCNC(=O)[C@@H]2CC(=O)N(C)[C@@H](CC(C)C)C(=O)N(C)CC(=O)N[C@H](Cc3ccccc3)COc3cnc4ccccc4c3C(=O)N2)c1 [Example 320, (3S,7S,13R)-13-benzyl-7-isobutyl-N-(3-(methoxy-d3)phenethyl)-6,9-dimethyl-1,5,8,11-tetraoxo-1,2,3,4,5,6,7,8,9,10,11,12,13,14-tetradecahydro-[1]oxa[4,7,10,14]tetraazacycloheptadecino[17,16-c]quinoline-3-carboxamide]
EC50 [5]: 0.363 µM
Emax [6]: 297%

Structure (SMILES): COc1cccc2c1C(=O)N[C@H](C(=O)NCCc1ccc3c(c1)OCCCO3)CC(=O)N(C)[C@@H](CC(C)C)C(=O)N(CCC1CCCCC1)CC(=O)N[C@H](Cc1ccccc1)CO2 (racemic) [Example 12, (3R,9S,13RS)-3-benzyl-7-(2-cyclohexylethyl)-N-(2-(3,4-dihydro-2H-benzo[b][1,4]dioxepin-7-yl)ethyl)-9-isobutyl-16-methoxy-10-methyl-5,8,11,15-tetraoxo-2,3,4,5,6,7,8,9,10,11,12,13,14,15-tetradecahydrobenzo[p][1]oxa[4,7,10,14]tetraazacycloheptadecine-13-carboxamide]
Emax [6]: 184%

Structure (SMILES): CC(C)C[C@H]1C(=O)N(C)C2(CC2)C(=O)N[C@H](Cc2ccccc2)COc2cnc3ccccc3c2C(=O)N[C@H](C(=O)NCCc2c(F)cccc2F)CC(=O)N1C [Example 110, (3′S,7′S,13′R)-13′-benzyl-N-(2,6-difluorophenethyl)-7′-isobutyl-6′,9′-dimethyl-1′,5′,8′,11′-tetraoxo-2′,3′,4′,5′,6′,7′,8′,9′,11′,12′,13′,14′-dodecahydro-1′H-spiro[cyclopropane-1,10′-[1]oxa[4,7,10,14]tetraazacycloheptadecino[17,16-c]quinoline]-3′-carboxamide]
EC50 [5]: 0.478 µM
Emax [6]: 261%

Structure (SMILES): COc1cccc(CCNC(=O)[C@@H]2CC(=O)N(C)[C@@H](CC(C)C)C(=O)N(C)CC(=O)N[C@H](Cc3ccccc3)COc3nc(C)sc3C(=O)N2)c1 [Example 241, (6R,12S,16S)-6-benzyl-12-isobutyl-N-(3-methoxyphenethyl)-2,10,13-trimethyl-8,11,14,18-tetraoxo-5,6,7,8,9,10,11,12,13,14,15,16,17,18-tetradecahydrothiazolo[5,4-p][1]oxa[4,7,10,14]tetraazacycloheptadecine-16-carboxamide]
EC50 [5]: 1.66 µM
Emax [6]: 92%

Structure (SMILES): CC(C)C[C@H]1C(=O)N(C)[C@H](Cc2nc(-c3ccc(F)cn3)no2)C(=O)N[C@H](Cc2ccccc2)COc2cnc3ccc(F)cc3c2C(=O)N[C@H](C(=O)NCCCOC(F)(F)F)CC(=O)N1C [Example 846, (3S,7S,10R,13R)-13-benzyl-20-fluoro-10-((3-(5-fluoropyridin-2-yl)-1,2,4-oxadiazol-5-yl)methyl)-7-isobutyl-6,9-dimethyl-1,5,8,11-tetraoxo-N-(3-(trifluoromethoxy)propyl)-1,2,3,4,5,6,7,8,9,10,11,12,13,14-tetradecahydro-[1]oxa[4,7,10,14]tetraazacycloheptadecino[17,16-c]quinoline-3-carboxamide]
EC50 [1]: 0.165 µM
Emax [2]: 261%

Structure (SMILES): COc1cccc(CCNC(=O)[C@@H]2CC(=O)N(C)[C@@H](CC(C)C)C(=O)N(CCC3CCCCC3)CC(=O)N[C@H](Cc3ccccc3)COc3cnc4c(F)cccc4c3C(=O)N2)c1 [Example 383, (3S,7S,13R)-13-benzyl-9-(2-cyclohexylethyl)-18-fluoro-7-isobutyl-N-(3-methoxyphenethyl)-6-methyl-1,5,8,11-tetraoxo-1,2,3,4,5,6,7,8,9,10,11,12,13,14-tetradecahydro-[1]oxa[4,7,10,14]tetraazacycloheptadecino[17,16-c]quinoline-3-carboxamide]
EC50 [5]: 0.065 µM
Emax [6]: 317%

Other lines, results leading:

EC50 [1]: 0.272 µM
Emax [2]: 332%
Structure (SMILES): COc1cc(CCNC(=O)[C@@H]2CC(=O)N(C)[C@@H](CC(C)C)C(=O)N3CCCC[C@@H]3C(=O)N[C@H](Cc3ccccc3)COc3ccc4ncccc4c3C(=O)N2)on1 [Example 912, (9S,13S,19aR,22R)-22-benzyl-13-isobutyl-N-(2-(3-methoxyisoxazol-5-yl)ethyl)-12-methyl-7,11,14,20-tetraoxo-7,8,9,10,11,12,13,14,17,18,19,19a,20,21,22,23-hexadecahydro-16H-pyrido[2′,1′:6,7][1]oxa[4,7,10,14]tetraazacycloheptadecino[16,17-f]quinoline-9-carboxamide]

EC50 [3]: 0.417 µM
Emax [4]: 251%
Structure (SMILES): CC(C)C[C@H]1C(=O)N(C)C2(CC2)C(=O)N[C@H](Cc2ccccc2)COc2cnc3ccccc3c2C(=O)N[C@H](C(=O)NCCc2cccc(-n3nccn3)c2)CC(=O)N1C [Example 453, (3′S,7′S,13′R)-N-(3-(2H-1,2,3-triazol-2-yl)phenethyl)-13′-benzyl-7′-isobutyl-6′,9′-dimethyl-1′,5′,8′,11′-tetraoxo-2′,3′,4′,5′,6′,7′,8′,9′,11′,12′,13′,14′-dodecahydro-1′H-spiro[cyclopropane-1,10′-[1]oxa[4,7,10,14]tetraazacycloheptadecino[17,16-c]quinoline]-3′-carboxamide]

EC50 [3]: 0.014 µM
Emax [4]: 252%
Structure (SMILES): CC(C)C[C@H]1C(=O)N(C)[C@H](CC2CCCCC2)C(=O)N[C@H](Cc2ccccc2)COc2cnc3ccc(F)cc3c2C(=O)N[C@H](C(=O)NCCc2nc(C3CC3)no2)CC(=O)N1C [Example 696, (3S,7S,10R,13R)-13-benzyl-10-(cyclohexylmethyl)-N-(2-(3-cyclopropyl-1,2,4-oxadiazol-5-yl)ethyl)-20-fluoro-7-isobutyl-6,9-dimethyl-1,5,8,11-tetraoxo-1,2,3,4,5,6,7,8,9,10,11,12,13,14-tetradecahydro-[1]oxa[4,7,10,14]tetraazacycloheptadecino[17,16-c]quinoline-3-carboxamide]

EC50 [3]: 0.423 µM
Emax [4]: 306%
Structure (SMILES): Cc1cc(CCNC(=O)[C@@H]2CC(=O)N(C)[C@@H](CC(C)C)C(=O)N(C)[C@H](C)C(=O)N[C@H](Cc3ccccc3)COc3cnc4ccccc4c3C(=O)N2)on1 [Example 573, (3S,7S,10R,13R)-13-benzyl-7-isobutyl-6,9,10-trimethyl-N-(2-(3-methylisoxazol-5-yl)ethyl)-1,5,8,11-tetraoxo-1,2,3,4,5,6,7,8,9,10,11,12,13,14-tetradecahydro-[1]oxa[4,7,10,14]tetraazacycloheptadecino[17,16-c]quinoline-3-carboxamide]

EC50 [3]: 0.149 µM
Emax [4]: 280%
Structure (SMILES): Cc1cc(CCNC(=O)[C@@H]2CC(=O)N(C)[C@@H](CC(C)C)C(=O)N(C)[C@H](C3CCCC3)C(=O)N[C@H](Cc3ccccc3)COc3cnc4ccccc4c3C(=O)N2)on1 [Example 710, (3S,7S,10R,13R)-13-benzyl-10-cyclopentyl-7-isobutyl-6,9-dimethyl-N-(2-(3-methylisoxazol-5-yl)ethyl)-1,5,8,11-tetraoxo-1,2,3,4,5,6,7,8,9,10,11,12,13,14-tetradecahydro-[1]oxa[4,7,10,14]tetraazacycloheptadecino[17,16-c]quinoline-3-carboxamide]

EC50 [1]: 0.128 µM
Emax [2]: 413%
Structure (SMILES): COc1cc(CCNC(=O)[C@@H]2CC(=O)N(C)[C@@H](CC(C)C)C(=O)N(C)[C@H](Cc3nc(-c4ccc(F)cn4)no3)C(=O)N[C@H](Cc3ccccc3)COc3cnc4ccc(F)cc4c3C(=O)N2)on1 [Example 815, (3S,7S,10R,13R)-13-benzyl-20-fluoro-10-((3-(5-fluoropyridin-2-yl)-1,2,4-oxadiazol-5-yl)methyl)-7-isobutyl-N-(2-(3-methoxyisoxazol-5-yl)ethyl)-6,9-dimethyl-1,5,8,11-tetraoxo-1,2,3,4,5,6,7,8,9,10,11,12,13,14-tetradecahydro-[1]oxa[4,7,10,14]tetraazacycloheptadecino[17,16-c]quinoline-3-carboxamide]
